Experimental data: article PMC6383948, “Evaluation of a class of isatinoids identified from a high-throughput screen of human kinase inhibitors as anti-Sleeping Sickness agents” (PLoS Neglected Tropical Diseases, 2019)
Marks after values point to notes of the source that are not given here.

Legend:
T. b. brucei = T. b. brucei growth inhibition EC50 assay (resazurin, 72 h); type: cell-based, Trypanosoma brucei brucei Lister 427; conditions: 72 h, resazurin, error within ±0.20 (Table 2) or ±0.08 (Table 3) log units; for EC50: Trypanosoma brucei, read-out: T.b.b. pEC50 (converted)
Description: Mid-log phase growth T. b. brucei was diluted to a working cell density of 2,750 cells/mL and 90 μL/well dispensed into 96-well flat-bottom transparent assay plates (Nunc). Ten μL/well from intermediate plates were added. The final top concentration of compounds was 40 μM in 0.4% DMSO per well.
Assay plates were incubated for 72 h at 37°C and 5% CO2. Four hours prior to the end of the incubation, 20 μL of a 440 μM resazurin solution in prewarmed HMI-9 was added to each well and incubated for another 4 h. Fluorescence was then measured in an Infinite F200 plate reader (Tecan) at 550 nm (excitation filter) and 590 nm (emission filter). A 4-parameter equation was employed to fit the dose-response curves and determine of EC50 using the SigmaPlot 13.0 software. Assays were performed in duplicate at least twice, to achieve a minimal n = 3 per dose response.
Bloodstream Trypanosoma brucei brucei Lister 427 was cultured in Hirumi’s modified Iscove’s medium (HMI-9), supplemented with 10% heat-inactivated FBS, at 37 °C and 5% CO2 in T-25 vented flask (Corning®).
For dose-response experiments, compound plates were prepared for each analogue by serial 3-fold dilutions in 100% DMSO. Five concentration points (mammalian cytotoxicity) or ten concentration points (parasite growth inhibition), were made in 96-well transparent Nunclon plates. Pentamidine is routinely included in compound plates as internal quality control, and plates are stored sealed at -20 °C for no more than four weeks.

[1] = Shake-flask octanol-water Log D7.4; type: physicochemical; conditions: pH 7.4, octanol-water shake-flask
Description: Shake-flask octanol-water distribution coefficient at pH 7.4 (Log D7.4). The aqueous solution used is 10 mM sodium phosphate pH 7.4 buffer. The method has been validated for Log D7.4 ranging from -2 to 5.0.

MRC5-SV2 cell line = assay: Cytotoxicity assay in MRC5 (resazurin, 48 h); type: cell-based, human; conditions: MRC5 toxicity
Description: For dose-response experiments, compound plates were prepared for each analogue by serial 3-fold dilutions in 100% DMSO. Five concentration points (mammalian cytotoxicity) or ten concentration points (parasite growth inhibition), were made in 96-well transparent Nunclon plates. Pentamidine is routinely included in compound plates as internal quality control, and plates are stored sealed at -20 °C for no more than four weeks. Intermediate plates were made as described, adding 95 μL of DMEM complete media to 5 μL of compound per well setting a 5% DMSO amount. Log-phase MRC5 cells were removed from a T-75 TC flask using TrypLE® Express (Thermo®) and dispersed by gentle pipetting. Cell density was adjusted to working concentration in prewarmed DMEM medium: 25,000 cells in 90 μL of culture were plated in 96-well transparent Nunclon plates and let to settle for 24 h at 37 °C and 5% CO2. After settling incubation, 10 μL of fresh made intermediate plate were added per well: final maximal concentration for compounds was 50 μM in 0.5% DMSO per well. […] Fluorescence was read in an Infinite F200 plate reader (Tecan®) at 550 nm (excitation filter) and 590 nm (emission filter). A 4-parameter equation was used to fit the dose-response curves and determination of EC50 by SigmaPlot ® 13.0 software. Assays were performed in duplicate at least twice for positive compounds, to achieve a minimal n=3 per dose response.

T. cruzi = assay: β-D-Galactosidase transgenic T. cruzi assay (amastigote-infected L6 cells); type: cell-based, T. cruzi Tulahuen C4 strain; conditions: Trypanosoma cruzi, 96 h, read-out: T. cruzi pEC50 (converted)
Description: The T. cruzi Tulahuen C4 strain, expressing the β-galactosidase gene (LacZ) and L6 rat skeletal muscle cells, used as host cells, were cultured in RPMI-1640 supplemented with 10% iFBS, 2 mM L-glutamine, 100 U/mL penicillin, and 100 μg/mL streptomycin at 37 °C and 5% CO2.
A Thermo Scientific Multidrop Combi dispenser (MTX Lab Systems, Vienna, VA) was used to dispense 90 μL of T. cruzi amastigote–infected L6 cell culture (4×10^3 infected L6 cells per well) into 96-well Corning assay plates (Corning Inc., Corning, NY) already containing 10 μL of the compounds to be screened and controls. The plates were incubated at 37 °C for 96 h. Then, 30 μL of 100 μM CPRG and 0.1% NP40 diluted in PBS were added to each well, and the plates were incubated for 4 h at 37 °C in the dark. Absorbance at 585 nm was measured in a Vmax kinetic microplate reader ([…]). Compound activities were normalized using the in-plate negative (benznidazole at 10 μg/mL) and positive (0.2% DMSO) growth controls.

[2] = Aqueous pH 7.4 solubility; type: physicochemical; conditions: aqueous buffer, thermodynamic from solid; pH 7.4 phosphate buffer, 25 °C, 20-24 h; read-out: Aq. Solubility
Description: Compounds are dried down from 10 mM DMSO solutions using centrifugal evaporation technique. Phosphate buffer (0.1 M pH 7.4) added and StirStix inserted in the glass vials, shaking is then performed at a constant temperature of 25 °C for 20-24 h. This step is followed by double centrifugation with a tip wash in between, to ensure that no residues of the dried compound are interfering. The solutions are diluted before analysis and quantification using LC/MS/MS is performed.

[3] = system: S. mansoni adults and somules; assay: S. mansoni phenotypic assay, adults and somules (severity score); type: cell-based, Schistosoma mansoni (NMRI isolate); conditions: score 0-4; for Adult severity score (10 μM): adults; for Somule severity score (10 μM): somules
Description: Maintenance of the Schistosoma mansoni life cycle, preparation of somules (post-infective larvae) and adult worms (≥42-days-old), and co-incubation of these stages with test compounds were as described. An NMRI isolate of S. mansoni was used for all whole-organism screens.
Somules (40 units/well/96w round-bottomed plate) or adults (five paris/well/24w plate) were cultured in the presence of compounds at 10 µM and phenotypic changes observed as a function of time using an Zeiss Axiovert A1 inverted microscope (Table S4). A constrained nomenclature was used to describe the effects of compounds on parasites (changes in shape, motility and density). To generate a partially quantitative output for comparing drug effects, each descriptor was awarded a score of 1 and these were summed to a maximum score of 4 [7-10]: evidence of degeneracy or death was awarded the maximum score of 4. For adults specifically, damage to the tegument (outer surface) was also awarded a score of 4 based on the indication that damage to the patrasite’s surface is lethal in vivo [11]. Assays were performed twice and representative data are shown.

[4] = Human plasma protein binding (equilibrium dialysis); type: in vitro ADME; conditions: pH 7.4, read-out: PPB (converted)
Description: PPB is determined using equilibrium dialysis (RED device) to separate free from bound compound. The amount of compound in plasma (10 µM initial concentration) and in dialysis buffer (pH 7.4 phosphate buffer) is measured by LC-MS/MS after equilibration at 37 °C in a dialysis chamber. The fraction unbound (fu) is reported.

L. donovani = assay: EC50 in L. donovani (infected THP-1 macrophages, luciferase); type: cell-based, Leishmania donovani MHOM/ET/67/HU3; conditions: Leishmania donovani, 72 h, read-out: L. donovani pEC50 (converted)
Description: Leishmania donovani MHOM/ET/67/HU3 cells with the luciferase gene integrated into the parasite genome[1] were grown at 28 °C in RPMI 1640-modified medium (Invitrogen) supplemented with 20% FBS with […] of hygromycin B.
The Human myelomonocytic cell line THP-1 was grown at 37 °C and 5% CO2 in RPMI-1640 supplemented with 10% iFBS, 2 mM […], 100 U/mL penicillin and […] streptomycin. 3 x 10^4 THP-1 cells per well in 96-well plates were differentiated to macrophages with 20 ng/mL of PMA treatment for 48 h followed by 24 h of culture in fresh medium.
Macrophage-differentiated THP-1 cells were infected at a macrophage/parasite ratio of 1/10 with stationary L. donovani promastigotes for 24 h at 35 °C and 5% CO2, and extracellular parasites were removed by washing with PBS. Infected cell cultures were then incubated with different compounds concentrations at 37 °C for 72 h. Luminescence was measured using the Promega kit luciferase assay system (Promega, Madison, WI). Assays were performed in duplicate at least twice, to achieve a minimal n=3 per dose response.

SMILES	MRC5 pTC50 (MRC5-SV2 cell line)	T.b.b. pEC50 (T. b. brucei)	further results
COc1ccc(N/N=C2\C(=O)Nc3ccccc32)cc1 [NEU-2114, (Z)-3-(2-(4-Methoxyphenyl)hydrazono)indolin-2-one]	<4.3		EC50 (T. b. brucei): 10 µM; logD [1]: > 3.3; EC50 (T. cruzi): > 10 µM; solubility [2]: < 7 µM; Adult severity score (10 μM) ([3]; 3h): 0; Adult severity score (10 μM) ([3]; 6h): 0; Adult severity score (10 μM) ([3]; 24h): 0; Adult severity score (10 μM) ([3]; 48h): 0; Somule severity score (10 μM) ([3]; 24h): 2; Somule severity score (10 μM) ([3]; 48h): 0; fraction unbound at 10 µM [4]: < 0.03; EC50 (L. donovani): > 10 µM
O=C1Nc2ccccc2/C1=N/Nc1cc(Cl)cc(Cl)c1 [NEU-2117, (Z)-3-(2-(3,5-Dichlorophenyl)hydrazono)indolin-2-one]	<4.3		EC50 (T. b. brucei): > 39.8 µM; logD [1]: > 3.7; EC50 (T. cruzi): > 10 µM; solubility [2]: < 3 µM; Adult severity score (10 μM) ([3]; 3h): 1; Adult severity score (10 μM) ([3]; 6h): 0; Adult severity score (10 μM) ([3]; 24h): 0; Adult severity score (10 μM) ([3]; 48h): 3; Somule severity score (10 μM) ([3]; 24h): 0; Somule severity score (10 μM) ([3]; 48h): 0; fraction unbound at 10 µM [4]: < 0.04; EC50 (L. donovani): > 10 µM
NS(=O)(=O)c1ccc(N/N=C2\C(=O)Nc3ccc(Cl)cc32)cc1 [NEU-2319]	<5.0^b	6.0	
CC(C)=Cc1cccc2c1/C(=N/Nc1ccc(S(=O)(=O)N(C)C)cc1)C(=O)N2 [NEU-4405, (Z)-N,N-Dimethyl-4-(2-(4-(2-methylprop-1-en-1-yl)-2-oxoindolin-3-ylidene)hydrazinyl)benzenesulfonamide]	<4.3		EC50 (T. b. brucei): 5.01 µM; EC50 (T. cruzi): > 20 µM; EC50 (L. donovani): > 5.01 µM
CC(C)c1cc2c(c(Cl)c1O)/C(=N/Nc1ccc(S(N)(=O)=O)cc1)C(=O)N2 [NEU-5455]	<5.0^b	6.4	
Cc1ccc2c3c(ccc2n1)NC(=O)/C3=N\Nc1ccc(S(N)(=O)=O)cc1 [NEU-5456]	<5.0^b		EC50 (T. b. brucei): 0.0398 µM
NS(=O)(=O)c1ccc(NN=C2C(=O)Nc3cc4c(cc32)NCC4)cc1 [NEU-5459]	<5.0^b		EC50 (T. b. brucei): 0.794 µM
NC(=O)c1cccc2c1/C(=N/Nc1ccc(S(N)(=O)=O)cc1)C(=O)N2 [NEU-5460]	<5.0^b	6.2	
Cc1c(Cl)ccc2c1/C(=N/Nc1ccc(S(N)(=O)=O)cc1)C(=O)N2 [NEU-5464]	<5.0^b	7.3	
Cc1cc2c(c(C)c1O)/C(=N/Nc1ccc(S(N)(=O)=O)cc1)C(=O)N2 [NEU-5469]	<5.0^b	8.2	
CCc1ccc2c(c1)NC(=O)/C2=N\Nc1ccc(S(N)(=O)=O)cc1 [NEU-5470]	<5.0^b	6.1	
Cc1ccc2c(c1C)/C(=N/Nc1ccc(S(N)(=O)=O)cc1)C(=O)N2 [NEU-5479]	<5.0^b	6.9	
Cc1cc2c(c(Cl)c1O)/C(=N/Nc1ccc(S(N)(=O)=O)cc1)C(=O)N2 [NEU-5485]	<5.0^b	7.1	
CC(C)Cc1cccc2c1/C(=N/Nc1ccc(S(N)(=O)=O)cc1)C(=O)N2 [NEU-5487]	<5.0^b	7.4	
CCc1cccc2c1/C(=N/Nc1ccc(S(N)(=O)=O)cc1)C(=O)N2 [NEU-5489]	<5.0^b	7.5	
CC(C)c1cccc2c1/C(=N/Nc1ccc(S(N)(=O)=O)cc1)C(=O)N2 [NEU-5491]	<5.0^b	7.6	
NS(=O)(=O)c1ccc(N/N=C2\C(=O)Nc3cccc(CC4CCC4)c32)cc1 [NEU-5492]	<5.0^b	6.9	
NS(=O)(=O)c1ccc(N/N=C2\C(=O)Nc3cccc(CCc4ccc(O)cc4)c32)cc1 [NEU-5493]		6.0	
